In patent US6335466B1, “Fluorinated amino polyhedral borate compounds” (Colorado State University Research Foundation, priority 2000, dated 2002):
Several values for one entry are separate records, joined by “and”; a condition that tells them apart may be missing. Equal entries are not always repeated.

Columns and labels:
[1] = Conductivity of glyme (DME) solutions; type: physicochemical
From the text: A calibrated Yellow Springs model 3403 conductivity cell (cell constant k=1.113) and a model 31 conductivity bridge were employed. The measurements were made in a nitrogen-filled glove box. […] The concentration dependence of the conductivity of a lithium salt in a dilute solution is expected to be linear. The conductivity of a 0.01 M glyme solution of LiB12F11NMe3 is therefore expected to be about 78 μS cm^−1. The conductivity of a 0.0050 M glyme solution LiB12F11NMe3 is approximately ten times higher than the conductivity of a 0.010 M glyme solution of lithium triflate (4 μS cm−1).
The conductivities of solutions of Li(Dd3NB12F11) and Li(Bn2HNB12F11) (the latter sample was contaminated with about 15% Li(BnH2NB12F11)) were measured using a similar procedure as that of Example 25. A calibrated Yellow Springs model 3403 conductivity cell (cell constant k=0.98 cm−1) and a Yellow Springs model 31 conductivity bridge was employed. The measurements were made in a nitrogen-filled glove box. The conductivities of glyme solutions of Li(Dd3NB12F11), Li(Bn2HNB12F11), and lithium salts of related anions are listed in Table 2.

[2] = comparison species; cited from earlier work
[3] = Solubility in organic solvents and water; type: physicochemical
[4] = Olefin polymerization catalyst activator test; details: 20 μmole Zr, Zr/A/Al 1/4/250, MAO; listed as C
From the text: All solvents used in synthesis and polymerization experiments were obtained when possible as anhydrous grade and further purified as described below. Diethyl ether, hexanes and toluene were obtained from Aldrich Chemical Company (Milwaukee, Wis.) in Sure Seal® bottles as anhydrous grade. Solvents were further purified by passing through columns packed with activated A2 alumina and Q-5 catalyst which had been reduced tbennally under hydrogen. Methylliium in aiethyl ether, zirconecene dichloride, pentamethylcyclopentadienyl zirconium dichloride and methylaluminoxane (10 wt. % in toluene) were obtained from Aldrich Chemical Company and used without further purification. Methyllithium was titrated with an aqueous HCl standard (Aldrich Chemical Company) against a phenolphthalein indicator in order to determine the concentration prior to use. Tris(perfluorophenyl)borate (i.e., B2 borate) was obtained as a research sample from Albermarle (Baton Rouge, La.) (Lot # 29779501-10) and used without further purification.
The solvent for polymerization experiments was 2,2,4-trimethylpentane (i.e., iso-octane) which was obtained from Aldrich Chemical Company in 18 L Stainless Steel Kilo Lab® Cylinders as anhydrous grade. The polymerization solvent was further purified by passing through columns packed with activated 13× molecular sieves and Q-5 catalyst. Periodic checks were performed on the water content of the solvent by Karl Fischer Columbmetric Titration and determined to contain 3 ppm or less water after purification. Solids were stored, weighed and transferred in glove box equipped with a catalyst train under dry nitrogen. Polymerization stock solutions and compositions were prepared in septum fitted bottles in a glove box. All solutions were freshly prepared for each set of evaluations.
All solutions were prepared in a glove box under dry nitrogen in a glass narrow mouth bottle fitted with a septum. This solution was prepared by the dissolution of 63 mg of Cp2ZrMe2 in 50 mL of dry, nitrogen degassed toluene. The complex was completely miscible in the solvent. […]

[5] = lithium salts, 0.0100 M DME solutions, 25° C., nitrogen atm.

## F[P-](F)(F)(F)(F)F.[Li+] [LiPF6]
[1]; [5]
  conductivity: 73 μS cm−1

## CCCCN [NH3Bu^+1]
[2]
  pKa value of selected acids: 10.8

## CCCC[N+](CCCC)(CCCC)CCCC.F[B-](F)(F)F [[NBu4][BF4]]
[3]
  solubility in water relative to [NBu4][H3NB12F11]: higher solubility

## CN [NH3Me^+1]
[2]
  pKa value of selected acids: 10.7

## O=S(=O)([O-])C(F)(F)F.[Li+] [lithium triflate]
[1]; 0.010 M glyme solution
  conductivity: 4 μS cm^−1
[1]; [5]
  conductivity: 4 μS cm−1

## S [HS^−1]
[2]
  pKa value of selected acids: 19.0

## Fc1c(F)c(F)c(OB(Oc2c(F)c(F)c(F)c(F)c2F)Oc2c(F)c(F)c(F)c(F)c2F)c(F)c1F [B2 borate, Tris(perfluorophenyl)borate]
[4]
  Final Rate C2H4 uptake: 0.7 g/m and 0.9 g/m and 1.3 g/m and 0.8 g/m
  Max Exotherm: 1 °C and 2 °C
  Max Rate C2H4 uptake: 26.3 g/m and 21.7 g/m and 16.3 g/m and 24.9 g/m and 31.3 g/m
